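Dose response: 5 concentrations. Exposure: 48 h. Format: 96-well plates. Endpoint: linear interpolation; highest concentration if not reached. GI50 marks 50% less growth.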 The source made the active and inactive calls. Cut-off read from the data, not from the text of the source: active = GI50 up to about 1.1 µM and inactive = higher.
Key:
Assay in all cases: DTP human tumour cell line panel, 48 h
U-251 = test system: U-251
SK-MEL-28 = test system: SK-MEL-28
IGROV-1 = test system: IGROV-1
DU-145 = test system: DU-145
SK-MEL-2 = test system: SK-MEL-2
SF-295 = test system: SF-295
UO-31 = test system: UO-31
SNB-19 = test system: SNB-19
COLO 205 = test system: COLO 205
ACHN = test system: ACHN
A498 = test system: A498
EKVX = test system: EKVX
SK-OV-3 = test system: SK-OV-3
HOP-62 = test system: HOP-62
RXF 393 = test system: RXF 393
HCT-15 = test system: HCT-15
MDA-MB-231 = test system: MDA-MB-231
HT-29 = test system: HT-29
NCI-H460 = test system: NCI-H460
SF-539 = test system: SF-539
MCF7 = test system: MCF7
KM12 = test system: KM12
M14 = test system: M14
OVCAR-3 = test system: OVCAR-3
TK-10 = test system: TK-10
HCT-116 = test system: HCT-116
RPMI-8226 = test system: RPMI-8226
PC-3 = test system: PC-3
SR = test system: SR
HCC 2998 = test system: HCC 2998
UACC-257 = test system: UACC-257
SK-MEL-5 = test system: SK-MEL-5
SNB-75 = test system: SNB-75
NCI-H522 = test system: NCI-H522
BT-549 = test system: BT-549
CCRF-CEM = test system: CCRF-CEM
OVCAR-5 = test system: OVCAR-5
SW-620 = test system: SW-620
NCI/ADR-RES = test system: NCI/ADR-RES
MDA-N = test system: MDA-N
Malme-3M = test system: Malme-3M
SF-268 = test system: SF-268
786-0 = test system: 786-0
A549 = test system: A549
MOLT-4 = test system: MOLT-4
CAKI-1 = test system: CAKI-1
OVCAR-8 = test system: OVCAR-8
T47D = test system: T47D
Hs-578T = test system: Hs-578T
OVCAR-4 = test system: OVCAR-4
HOP-92 = test system: HOP-92
SN12C = test system: SN12C
K562 = test system: K562
NCI-H23 = test system: NCI-H23
NCI-H226 = test system: NCI-H226
UACC-62 = test system: UACC-62
MDA-MB-435 = test system: MDA-MB-435
HL-60 = test system: HL-60
LOX IMVI = test system: LOX IMVI

Measured: GI50

CC1Oc2cc3c(-c4c(O)cc(O)c5c(O)c6c(cc45)OC(C)C(C)C6=O)c(O)cc(O)c3c(O)c2C(=O)C1C (stereo unspecified)
active: U-251 0.038 µM | SK-MEL-28 0.698 µM | IGROV-1 0.0574 µM | DU-145 0.365 µM | SK-MEL-2 0.101 µM | SF-295 0.061 µM | UO-31 0.213 µM | SNB-19 0.0832 µM | COLO 205 0.17 µM | ACHN 0.183 µM | A498 0.155 µM | EKVX 0.116 µM | SK-OV-3 0.363 µM | HOP-62 0.282 µM | RXF 393 0.0173 µM | MDA-MB-231 0.0925 µM | HT-29 0.0289 µM | NCI-H460 0.0259 µM | SF-539 0.15 µM | MCF7 0.147 µM | KM12 0.0607 µM | M14 0.226 µM | OVCAR-3 0.255 µM | TK-10 0.27 µM | HCT-116 0.0378 µM | RPMI-8226 0.0489 µM | PC-3 0.0546 µM | SR 0.054 µM | HCC 2998 0.281 µM | UACC-257 0.289 µM | SK-MEL-5 0.158 µM | SNB-75 0.0675 µM | NCI-H522 0.343 µM | BT-549 0.0605 µM | CCRF-CEM 0.0279 µM | OVCAR-5 0.55 µM | SW-620 0.136 µM | NCI/ADR-RES 0.162 µM | MDA-N 0.359 µM | Malme-3M 0.265 µM | SF-268 0.254 µM | 786-0 0.102 µM | A549 0.0252 µM | MOLT-4 0.109 µM | CAKI-1 0.231 µM | OVCAR-8 0.0859 µM | T47D 0.259 µM | Hs-578T 0.0439 µM | OVCAR-4 0.0869 µM | HOP-92 0.184 µM | SN12C 0.11 µM | K562 0.0526 µM | NCI-H23 0.122 µM | NCI-H226 0.0871 µM | UACC-62 0.372 µM | MDA-MB-435 0.24 µM | HL-60 0.24 µM
0.0474 µM: HCT-15

Nc1ccc(-c2nc3cc(F)ccc3s2)cc1Br
active: IGROV-1 < 0.01 µM | COLO 205 0.377 µM | ACHN 0.621 µM | HT-29 0.368 µM | NCI-H460 0.0458 µM | MCF7 < 0.0111 µM | OVCAR-3 0.0964 µM | TK-10 0.0306 µM | HCT-116 0.0552 µM | SR < 0.01 µM | HCC 2998 < 0.01 µM | OVCAR-5 0.0904 µM | T47D 0.038 µM | NCI-H226 0.0504 µM
inactive: U-251 18.1 µM | SK-MEL-28 > 100 µM | DU-145 55.7 µM | SK-MEL-2 > 89.5 µM | SF-295 23.5 µM | UO-31 37.6 µM | SNB-19 53.3 µM | A498 14.7 µM | EKVX 2.71 µM | SK-OV-3 > 59 µM | HOP-62 12.7 µM | RXF 393 25.5 µM | MDA-MB-231 8.95 µM | SF-539 > 41.5 µM | KM12 10.4 µM | M14 > 95.5 µM | RPMI-8226 > 78.2 µM | PC-3 26.6 µM | UACC-257 > 100 µM | SK-MEL-5 33.1 µM | SNB-75 18.3 µM | NCI-H522 > 42.8 µM | BT-549 7.69 µM | CCRF-CEM > 100 µM | SW-620 > 93.8 µM | NCI/ADR-RES > 56.8 µM | MDA-N > 100 µM | Malme-3M 33 µM | SF-268 42 µM | 786-0 59 µM | A549 8.97 µM | LOX IMVI > 51.2 µM | MOLT-4 > 100 µM | CAKI-1 3.99 µM | OVCAR-8 28.7 µM | Hs-578T 36.7 µM | OVCAR-4 23.8 µM | HOP-92 29.1 µM | SN12C > 73.5 µM | UACC-62 > 84.1 µM | MDA-MB-435 > 100 µM | HL-60 4.71 µM
0.144 µM: HCT-15

COC(=O)c1ccc(/C=C/C2=CC(=O)C=CC2=O)cc1
inactive: U-251 17.3 µM | SK-MEL-28 20.8 µM | IGROV-1 16.7 µM | DU-145 45.1 µM | SK-MEL-2 24 µM | SF-295 29.6 µM | UO-31 11.4 µM | SNB-19 10.5 µM | COLO 205 18.7 µM | ACHN 14.7 µM | A498 18.7 µM | EKVX 19.1 µM | HOP-62 50.8 µM | RXF 393 20.4 µM | MDA-MB-231 10.9 µM | HT-29 21.5 µM | NCI-H460 23.9 µM | SF-539 10.5 µM | MCF7 8.57 µM | KM12 14.4 µM | M14 24.7 µM | OVCAR-3 9.73 µM | TK-10 21.2 µM | HCT-116 15.1 µM | PC-3 12.8 µM | SR 3.3 µM | HCC 2998 20.7 µM | UACC-257 17.1 µM | SK-MEL-5 20.8 µM | SNB-75 32.8 µM | NCI-H522 1.8 µM | BT-549 5.81 µM | CCRF-CEM 2.4 µM | OVCAR-5 19.9 µM | SW-620 16.8 µM | NCI/ADR-RES 22.4 µM | MDA-N 41.7 µM | Malme-3M 17.4 µM | SF-268 16.7 µM | 786-0 11.4 µM | A549 > 63.5 µM | LOX IMVI 6.14 µM | MOLT-4 2.74 µM | CAKI-1 13.8 µM | OVCAR-8 16.8 µM | T47D 6.35 µM | Hs-578T 44.6 µM | OVCAR-4 19.9 µM | HOP-92 13.5 µM | SN12C 18.9 µM | K562 2.43 µM | NCI-H23 18.1 µM | NCI-H226 17.6 µM | UACC-62 19.4 µM | MDA-MB-435 17.4 µM | HL-60 2.37 µM
active: RPMI-8226 1.01 µM
16.1 µM: HCT-15

NCCP(=O)(O)O
inactive: U-251 > 100 µM | SK-MEL-28 > 100 µM | IGROV-1 > 100 µM | DU-145 > 100 µM | SK-MEL-2 > 100 µM | SF-295 > 100 µM | UO-31 > 100 µM | SNB-19 > 100 µM | COLO 205 > 100 µM | ACHN > 100 µM | A498 > 100 µM | EKVX > 100 µM | SK-OV-3 > 100 µM | HOP-62 > 100 µM | RXF 393 > 100 µM | MDA-MB-231 > 100 µM | HT-29 > 100 µM | NCI-H460 > 100 µM | MCF7 > 100 µM | KM12 > 100 µM | M14 > 100 µM | OVCAR-3 > 100 µM | TK-10 > 100 µM | HCT-116 > 100 µM | RPMI-8226 > 100 µM | PC-3 > 100 µM | SR > 100 µM | HCC 2998 > 100 µM | UACC-257 > 100 µM | SK-MEL-5 > 100 µM | SNB-75 > 100 µM | NCI-H522 > 100 µM | BT-549 > 100 µM | CCRF-CEM > 100 µM | OVCAR-5 > 100 µM | SW-620 > 100 µM | NCI/ADR-RES > 100 µM | MDA-N > 100 µM | Malme-3M > 100 µM | SF-268 > 100 µM | 786-0 > 100 µM | A549 > 100 µM | LOX IMVI > 100 µM | MOLT-4 > 100 µM | CAKI-1 > 100 µM | OVCAR-8 > 100 µM | T47D > 100 µM | Hs-578T > 100 µM | OVCAR-4 > 100 µM | HOP-92 > 100 µM | SN12C > 100 µM | K562 > 100 µM | NCI-H23 > 100 µM | NCI-H226 > 100 µM | UACC-62 > 100 µM | MDA-MB-435 > 100 µM | HL-60 > 100 µM
> 100 µM: HCT-15
